Laboratory results reported in patent publication US8158586B2, “Inhibitors of protein kinases and uses thereof” (priority 2005, dated 2012).
“And” between values parts separate entries of the source, which are not always exact repeats. Equal values may be shown once. Marks after values point to notes of the source that are not given here. Positions of bridges follow the written chain, without caps; N, C: chain ends. Non-standard residues stand in square brackets, D forms with d. Residues, ends and D or L forms follow the SMILES beside them. Chains are numbered I, II in the order given. *: point of attachment. PNA(A) = NCCN(CC(=O)*)C(=O)Cn1cnc2c(N)ncnc21; Adenin9ylacetyl = Nc1ncnc2c1ncn2CC(=O)*; N(CH2CH2NHAc)Gly = CC(=O)NCCNCC(=O)O

What was measured:
[1] = biological target: Akt/PKB (Homo sapiens, UniProt P31749); test: Luminescence Kinase Glo assay, Akt/PKB; format: biochemical; details: 150000.0
Procedure: The ability of the PKI compounds to inhibit PKA, CDK2, Akt/PKB, MAPKp38 and CK2a2 protein kinases was assessed using the Luminescence Kinase Glo® Kit (Promega V6711) according to the manufacturer's instructions. In brief the protocol was as follows:
All kinases were prepared in their respective 1× buffers. 20 μL of […] reaction buffer was added to each well. 10 μL of PKI compound and 10 μL of the test kinase solution were added followed by 10 μL of the Reaction Solution (containing activators, ATP and substrate). The reactions were incubated at 30° C. for 30 min and then 50 μL of Kinase-Glo® was added. Luminescence was measured after 10-15 min on a Galaxy reader.

[2] = test system: MRP-1 expression in H-661 NSCLC cells; test: MRP-1 expression in H-661 NSCLC cells, flow cytometry; format: cell-based; details: H-661 control cell population exposed to doxorubicin for 72 h
Procedure: (§1) The protocol used for fixing the cells for flow cytometry is as follows. A minimum of 1.0×10^6 cells was used in each instance. Cells were trypsinized and spun down at 1,000/5 min at 4° C. All the medium was removed and the cells resuspended in 500 μl of 1×PBS, pH 7.1. The cell suspension was added into 5 mls of 1% paraformaldehyde/PBS on ice and fixed for 15 min on ice. Cells were then centrifuged at 1,000/5 min and resuspended in 10 mls of 1×PBS. Cells were centrifuged again at 1,000/5 min and resuspended in 2 mls of 70% ETOH and kept at −20° C. until needed (up to 1 week). At which time, 2 mls of 1×PBS containing 1% BSA/0.02% NaN3 was added to each tube and the cells were left on ice for 5 min to give the cells time to rehydrate. Cells were then centrifuged at 1,000/5 min and the ETOH/PBS mix removed. […]
(§2) In view of the key role of the Pgp170 and MRP-1 proteins in MDR, the effect of the PKI compounds on expression of these proteins in LS180 colon cancer cells and H-661 NSCLC cells was investigated. […] The number of cells individually analysed amounted to approximately 50,000 with a statistical error of about 0.08%.
(§3) The increase in the expression of P-gp and MRP-1 was assessed by comparing the % of cells expressing the protein in question in the presence and absence of doxorubicin (i.e. the ratio A/B in the Tables).

[3] = test system: MRP-1 expression in LS180 colon cancer cells; test: MRP-1 expression in LS180 colon cancer cells, flow cytometry; format: cell-based; details: LS180 control cell population exposed to doxorubicin for 72 h
Procedure: as §1, §2, §3

[4] = test system: H-661 NSCLC cells; test: Rhodamine influx and efflux in H-661 NSCLC cells; format: cell-based; details: control cells exposed to doxorubicin
Procedure: (§4) The amount of rhodamine influx and efflux following treatment of LS180 colon cancer cells and H-661 NSCLC cells with the PKI compounds was also investigated. The measurement of rhodamine efflux and influx is a common procedure that provides a quantitative estimation of the level of multidrug resistance due to typical MDR and non-P-gp MDR. Both exogenous treatment using 5 μg/mL of the PKI compounds provided at the same time as doxorubicin, and endogenous incorporation, in which a single dose of 5 mM was used with the standard pinocytic endocytosis protocol, were investigated.
(§5) The MDR-1 pump functions only as an efflux pump, however, it modulates the cell entry of rhodamine (that can diffuse through the membrane). Upon toxicant exposure, rhodamine accumulates in the cells. Ratios of rhodamine fluorescence in doxorubicin exposed versus untreated controls (CT) are lower if the pump is inhibited.

[5] = test system: PKCα expression in H-661 NSCLC cells; test: Expression of PKCα in H-661 cells, flow cytometry; format: cell-based; details: H-661 control cells exposed to doxorubicin for 72 h
Procedure: (§6) The effect of compounds 1 to 10 on doxorubicin-induced expression of PKCα in LS180 colon cancer cells and H-661 NSCLC cells was investigated. Cells were exposed to doxorubicin (50 ng/mL) for 3 days prior to exogenous treatment with the PKI compounds at a concentration of 5 μM. Results were acquired by flow cytometry after labelling of the cells with the PKC-alpha #sc 208 antibody.
as §1, with “removed. The cells were resuspended in 5 mls of 1×PBS and allowed to sit on ice for 5 min.” for “removed.”

[6] = test system: Pgp expression in H-661 NSCLC cells; test: Pgp expression in H-661 NSCLC cells, flow cytometry; format: cell-based; details: H-661 control cell population exposed to doxorubicin for 72 h
Procedure: as §1, §2, §3

[7] = test system: Pgp expression in LS180 colon cancer cells; test: Pgp expression in LS180 colon cancer cells, flow cytometry; format: cell-based; details: LS180 control cell population exposed to doxorubicin for 72 h
Procedure: as §1, §2, §3

[8] = test system: PKCα expression in LS180 colon cancer cells; test: Expression of PKCα in LS180 cells, flow cytometry; format: cell-based; details: LS180 control cells exposed to doxorubicin for 72 h
Procedure: as §6
as §1, with “removed. The cells were resuspended in 5 mls of 1×PBS and allowed to sit on ice for 5 min.” for “removed.”

[9] = test system: LS180 colon cancer cells; test: Rhodamine influx and efflux in LS180 colon cancer cells; format: cell-based; details: doxorubicin exposed controls
Procedure: as §4, §5

Chain of Akt/PKB (P31749 whole entry): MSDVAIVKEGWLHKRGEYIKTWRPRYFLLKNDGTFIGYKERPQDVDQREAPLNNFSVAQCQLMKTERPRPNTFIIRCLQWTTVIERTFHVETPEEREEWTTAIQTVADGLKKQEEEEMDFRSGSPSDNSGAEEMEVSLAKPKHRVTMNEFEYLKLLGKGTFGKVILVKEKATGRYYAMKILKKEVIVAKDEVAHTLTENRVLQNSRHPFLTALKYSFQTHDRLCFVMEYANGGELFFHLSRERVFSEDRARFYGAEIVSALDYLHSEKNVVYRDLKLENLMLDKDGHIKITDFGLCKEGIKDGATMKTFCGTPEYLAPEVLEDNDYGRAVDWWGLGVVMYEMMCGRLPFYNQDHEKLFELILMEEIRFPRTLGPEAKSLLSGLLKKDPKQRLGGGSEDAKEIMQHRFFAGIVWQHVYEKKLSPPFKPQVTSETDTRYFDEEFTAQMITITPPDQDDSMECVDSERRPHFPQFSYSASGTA

`CC(=O)N[C@@H](CCCCN)C(=O)N[C@@H](CC(C)C)C(=O)N[C@@H](CCCCN)C(=O)N[C@@H](CCCCN)C(=O)N[C@@H](C)C(=O)N[C@@H](CCCCNC(=O)CN(CCN)C(=O)Cn1cnc2c(N)ncnc21)C(=O)N[C@@H](CC(C)C)C(=O)NCC(=O)N[C@@H](CC(C)C)C(N)=O` [Compound 9] (Ac-KLKKAK(PNA(A))LGL-NH2; N-terminus and C-terminus assumed) was tested, and the “% Inhibition Akt/PKB” value [1] was 7%.
For `CC(=O)NCCN(CC(=O)NCC(=O)N[C@@H](CS)C(=O)N[C@@H](CCCCN)C(=O)NCC(=O)N[C@@H](CCCCN)C(=O)N[C@@H](Cc1ccccc1)C(=O)N[C@@H](CCCCN)C(=O)N[C@@H](CCCNC(=N)N)C(N)=O)C(=O)Cn1cnc2c(N)ncnc21` [Compound 10] (Adenin9ylacetyl-[N(CH2CH2NHAc)Gly]GCKGKFKR-NH2; N-terminus and C-terminus assumed), the “% Inhibition Akt/PKB” value [1] was 21%.
For `CC(=O)N[C@@H](CCCCN)C(=O)N[C@@H](CC(C)C)C(=O)N[C@@H](CCCNC(=N)N)C(=O)N[C@@H](CCCNC(=N)N)C(=O)N[C@@H](C)C(=O)N[C@@H](CCCCNC(=O)CN(CCN)C(=O)Cn1cnc2c(N)ncnc21)C(=O)N[C@@H](CCCNC(=N)N)C(=O)N[C@@H](Cc1ccccc1)C(=O)N[C@@H](CC(C)C)C(=O)N[C@@H](CCC(=O)O)C(=O)N[C@H](C(=O)N[C@@H](CC(=O)O)C(N)=O)C(C)C` [Compound 7] (Ac-KLRRAK(PNA(A))RFLEVD-NH2), the “% Inhibition Akt/PKB” value [1] was −7* %.
For `CC[C@H](C)[C@H](NC(=O)[C@H](CSSC[C@H](NC(=O)CNC(=O)CN(CCNC(C)=O)C(=O)Cn1cnc2c(N)ncnc21)C(=O)N[C@@H](CCCCN)C(=O)NCC(=O)N[C@@H](CCCCN)C(=O)N[C@@H](Cc1ccccc1)C(=O)N[C@@H](CCCCN)C(=O)N[C@@H](CCCNC(=N)N)C(N)=O)NC(=O)[C@H](Cc1c[nH]cn1)NC(C)=O)C(=O)NCC(=O)N[C@@H](CCCNC(=N)N)C(=O)N[C@@H](Cc1ccccc1)C(=O)N[C@@H](CCCCN)C(N)=O` [Compound 1] (I: Adenin9ylacetyl-[N(CH2CH2NHAc)Gly]GCKGKFKR-NH2 / II: Ac-HCIGRFK-NH2; disulfide I:3-II:2; N-terminus and C-terminus assumed), the “% Inhibition Akt/PKB” value [1] was −31* %.
In the case of `COc1cccc2c1C(=O)c1c(O)c3c(c(O)c1C2=O)C[C@@](O)(C(=O)CO)C[C@@H]3O[C@H]1C[C@H](N)[C@H](O)[C@H](C)O1` [doxorubicin], the “increase in number of MRP-1 labelled cells, average” value [2] is reported as 12.05 times, the “increase in number of MRP-1 labelled cells, average” value [3] is reported as 3.41 times and the “increase in rhodamine retention” value [4] is reported as roughly 2.00 times. The “increase in log fluorescence relative intensity (PKCα), average” value [5] was 2.19 times, the “increase in number of P-gp labelled cells, average” value [6] was 15.0 times and the “increase in number of P-gp labelled cells, average” value [7] was 2.38 times. The “increase in log fluorescence relative intensity (PKCα), average” value [8] was 1.99 times and the rhodamine accumulation [9] was 1.58 times and 1.43 times and 1.37 times.
In the case of `CC(=O)N[C@@H](CCCCN)C(=O)N[C@@H](Cc1ccccc1)C(=O)N[C@@H](CCCNC(=N)N)C(=O)N[C@@H](CCCNC(=N)N)C(=O)N[C@@H](CCCCNC(=O)CN(CCN)C(=O)Cn1cnc2c(N)ncnc21)C(=O)N[C@@H](CC(C)C)C(=O)N[C@@H](CCCNC(=N)N)C(=O)N[C@@H](CC(C)C)C(=O)N[C@@H](CCC(=O)O)C(=O)N[C@H](C(=O)N[C@@H](CC(=O)O)C(N)=O)C(C)C` [Compound 6] (Ac-KFRRK(PNA(A))LRLEVD-NH2), the “% Inhibition Akt/PKB” value [1] is reported as −10* %.
`CC(=O)N[C@@H](CCCCN)C(=O)N[C@@H](Cc1ccccc1)C(=O)N[C@@H](CCCNC(=N)N)C(=O)N[C@@H](CCCNC(=N)N)C(=O)N[C@@H](CCCCNC(=O)CN(CCN)C(=O)Cn1cnc2c(N)ncnc21)C(=O)N[C@@H](CCCNC(=N)N)C(=O)NCC(=O)N[C@@H](CCCNC(=N)N)C(=O)N[C@@H](CCC(=O)O)C(=O)N[C@H](C(=O)N[C@@H](CC(=O)O)C(N)=O)C(C)C` [Compound 5] (Ac-KFRRK(PNA(A))RGREVD-NH2) was tested, and the “% Inhibition Akt/PKB” value [1] was −6* %.
With `CC(=O)N[C@@H](CCCCN)C(=O)N[C@@H](CC(C)C)C(=O)N[C@@H](CCCNC(=N)N)C(=O)N[C@@H](CCCNC(=N)N)C(=O)N[C@@H](C)C(=O)N[C@@H](CCCCNC(=O)CN(CCN)C(=O)Cn1cnc2c(N)ncnc21)C(=O)N[C@@H](CC(C)C)C(=O)NCC(=O)N[C@@H](CC(C)C)C(=O)NCC(=O)N[C@@H](CC(=O)O)C(=O)N[C@@H](CC(=O)O)C(N)=O` [Compound 8] (Ac-KLRRAK(PNA(A))LGLGDD-NH2) the “% Inhibition Akt/PKB” value [1] was 0%.
